Measured values: PMC6915683, “Characterization of Maltase and Sucrase Inhibitory Constituents from Rhodiola crenulata” (Foods, 2019)
Entries after “also recorded” stand apart in the source; their conditions may differ. Where two headings read alike, the source gives them in different places.

Experiments:
sucrase [1] = assay: Sucrase inhibitory activity assay (sucrose substrate, glucose oxidase method); type: biochemical, Leuconostoc mesenteroides; conditions: for IC50: L. mesenteroides sucrase, sucrose substrate, pH 7.0, 37 °C, mean ± SD; for sucrase inhibition: at a concentration of 20 µM
Method: Estimates of sucrase activity were obtained using the method outlined by […] et al. with slight modifications. Sucrose and sucrase derived from Leuconostoc mesenteroides were obtained from Sigma Chemical Co. (St. Louis, MO, USA). […] The mixtures were incubated at 37 °C for 60 min and then at 100 °C for a further 10 min to stop the reaction. The glucose concentrations released from the reaction mixtures were estimated via the glucose oxidase method (glucose assay kit, Sigma Chemical Co., St. Louis, MO, USA) using a VersaMax microplate reader (Molecular Devices Corporation, Sunnyvale, CA, USA) at an absorbance wavelength of 540 nm. […] All samples were assessed in terms of sucrase inhibitory activity under a range of concentrations (0-50 μM).

α-glucosidase = tested on: α-glucosidase; parameters: method as in doi:10.1016/j.foodres.2014.01.029; conditions: cited from earlier work; for Ki / Ki’ α-glucosidase: previous results
maltase [2] = target: T1, maltase (Saccharomyces cerevisiae, UniProt P53341); assay: Maltase inhibitory activity assay (maltose substrate, glucose oxidase method); type: biochemical; conditions: for inhibition at 10 µM: read-out: maltase inhibition
T1 construct: purchased Sigma Chemical Co. (St. Louis, MO, USA)
T1 sequence (P53341 whole entry): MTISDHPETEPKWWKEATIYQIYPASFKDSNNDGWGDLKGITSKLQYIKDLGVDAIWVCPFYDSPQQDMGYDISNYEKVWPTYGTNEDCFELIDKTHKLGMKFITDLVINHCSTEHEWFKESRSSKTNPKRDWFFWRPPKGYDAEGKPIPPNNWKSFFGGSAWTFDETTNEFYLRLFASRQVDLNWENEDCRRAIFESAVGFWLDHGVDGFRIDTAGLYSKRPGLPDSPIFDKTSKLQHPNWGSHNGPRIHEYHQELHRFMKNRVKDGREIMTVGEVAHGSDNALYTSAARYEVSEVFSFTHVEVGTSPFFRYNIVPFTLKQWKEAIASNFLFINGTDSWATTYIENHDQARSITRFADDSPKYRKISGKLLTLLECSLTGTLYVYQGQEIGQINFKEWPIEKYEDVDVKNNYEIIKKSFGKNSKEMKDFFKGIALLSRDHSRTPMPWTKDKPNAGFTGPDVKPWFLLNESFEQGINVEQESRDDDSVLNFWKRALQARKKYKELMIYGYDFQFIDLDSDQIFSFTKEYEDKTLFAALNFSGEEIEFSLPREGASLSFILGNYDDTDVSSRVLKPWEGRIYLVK
Method: (§1) Maltase activity was characterized using the methods outlined by Adisakwattana et al. with slight modifications. Maltose and maltase derived from Saccharomyces cerevisiae (S. cerevisiae) were obtained from Sigma Chemical Co. (St. Louis, MO, USA). A reaction mixture was formulated from 30 μL of maltose (86.3 mM) with 20 μL of maltase (0.33 units/mL) and 50 μL of phosphate buffer (100 mM, pH 7.0). The mixture was incubated at 37 °C for 10 min and then at 100 °C for a further 10 min to stop the reaction. The glucose concentrations released by the reaction mixture were determined via the glucose oxidase method (glucose assay kit, Sigma Chemical Co., St. Louis, MO, USA) using a VersaMax microplate reader (Molecular Devices Corporation, Sunnyvale, CA, USA) at an absorbance wavelength of 540 nm.
All of the samples were assessed in terms of maltase inhibitory activity under a range of concentrations (0–30 μM). Maltase inhibitory activity was evaluated by dissolving the samples directly in phosphate buffer solution (100 mM, pH 7.0). Note that each sample was assayed in triplicate. Inhibitory activity was estimated in terms of IC50 values based on percent inhibition, as follows:percent inhibition (%) = [(Awithout sample − Awith sample)] × 100%/Awithout sample(1)

maltase [3] = target: T1, maltase; assay: Maltase inhibition kinetics (Lineweaver–Burk and Dixon plots); type: biochemical; conditions: for Ki’ maltase (uncompetitive inhibition constant): binding to maltase–maltose complex; for mode of inhibition toward maltase: Lineweaver–Burk / Dixon plots
Method: as §1
Kinetics assays were conducted using substrates of various concentrations with and without inhibitors. Maltose was used as a substrate for maltase, where the initial velocity was expressed as the rate of absorbance at 540 nm per min. Sucrose was used as a substrate for sucrase, where the initial velocity was expressed as the rate of absorbance at 540 nm per 18 min. Dixon plot analysis was used to determine the competitive inhibition constant (Ki) and uncompetitive inhibition constant (Ki’). Ki was used as the equilibrium constant for the inhibition of binding to maltase and sucrase, whereas Ki’ was used as the equilibrium constant for the inhibition of binding to maltase–maltose and sucrase–sucrose complexes. The Ki and Ki’ values of the maltase inhibitors were derived from Dixon plots in accordance with the methods described by Cornish-Bowden.

sucrase [4] = assay: Sucrase inhibition kinetics (Lineweaver–Burk and Dixon plots); type: biochemical, Leuconostoc mesenteroides; conditions: for Ki / Ki’ sucrase (uncompetitive inhibition constant): Dixon plot; for Ki / mode of inhibition toward sucrase: sucrose substrate; for Ki: binding to sucrase, read-out: Ki sucrase (competitive inhibition constant); for mode of inhibition toward sucrase: Lineweaver–Burk / Dixon plots; for Ki’ sucrase (uncompetitive inhibition constant): binding to sucrase–sucrose complex
Method: Estimates of sucrase activity were obtained using the method outlined by […] et al. with slight modifications. Sucrose and sucrase derived from Leuconostoc mesenteroides were obtained from Sigma Chemical Co. (St. Louis, MO, USA). […] The mixtures were incubated at 37 °C for 60 min and then at 100 °C for a further 10 min to stop the reaction. The glucose concentrations released from the reaction mixtures were estimated via the glucose oxidase method (glucose assay kit, Sigma Chemical Co., St. Louis, MO, USA) using a VersaMax microplate reader (Molecular Devices Corporation, Sunnyvale, CA, USA) at an absorbance wavelength of 540 nm. […] Kinetics assays were conducted using substrates of various concentrations with and without inhibitors. Maltose was used as a substrate for maltase, where the initial velocity was expressed as the rate of absorbance at 540 nm per min. Sucrose was used as a substrate for sucrase, where the initial velocity was expressed as the rate of absorbance at 540 nm per 18 min. Dixon plot analysis was used to determine the competitive inhibition constant (Ki) and uncompetitive inhibition constant (Ki'). Ki was used as the equilibrium constant for the inhibition of binding to maltase and sucrase, whereas Ki' was used as the equilibrium constant for the inhibition of binding to maltase-maltose and sucrase-sucrose complexes.

maltase [5] = tested on: maltase; parameters: method as in PMID 19772492; conditions: kinetic analysis; cited from earlier work
sucrase [6] = tested on: sucrase; parameters: method as in PMID 19772492; conditions: cited from earlier work
sucrose in rats = tested on: sucrose in rats; parameters: method as in PMID 20629879; conditions: read-out: IC50 against sucrose in rats; cited from earlier work
maltase [7] = target: maltase; parameters: method as in PMID 15826043; conditions: isolated from Siraitia grosvenori; read-out: IC50 maltase inhibitory activity; cited from earlier work
sucrase [8] = tested on: sucrase; parameters: method as in PMID 15895684; conditions: sucrose substrate, cited from earlier work
rat sucrose = tested on: rat sucrose; parameters: method as in doi:10.1016/j.foodchem.2010.03.088; conditions: read-out: IC50 against rat sucrose; cited from earlier work
rat maltase [9] = target: rat maltase; parameters: method as in doi:10.1016/j.foodchem.2010.03.088; conditions: read-out: IC50 against rat maltase; cited from earlier work
rat sucrase = target: rat sucrase; parameters: method as in PMID 28914528; conditions: cited from earlier work
maltase [10] = tested on: maltase; parameters: method as in PMID 32218677; conditions: maltose substrate, cited from earlier work
rat maltase [11] = target: rat maltase; parameters: method as in PMID 28914528; conditions: cited from earlier work
[12] = S. cerevisiae maltase, maltose substrate, pH 7.0, 37 °C, mean ± SD, triplicate, read-out: IC50 Maltase

O=C(OC1Cc2c(O)cc(O)c(C3c4c(O)cc(O)cc4OC(c4ccc(O)c(O)c4)C3O)c2OC1c1ccc(O)c(O)c1)c1cc(O)c(O)c(O)c1 (stereo not drawn) [B2-3’-O-gallate, epicatechin-(4β,8)-epicatechingallate]
IC50 (sucrase [1]): 6.91 ± 3.41 µM | sucrase inhibition (sucrase [1]): 84.6% | mode of inhibition of α-glucosidase (α-glucosidase): mixed-competitive inhibitors | Ki (α-glucosidase): 0.3 ± 0.03 µM | Ki’ α-glucosidase (α-glucosidase): 1.42 ± 0.01 µM | IC50 (maltase [2]; [12]): 1.73 ± 1.37 µM | inhibition at 10 µM (maltase [2]): 90.7% | Ki (maltase [3]; Dixon plot, maltose substrate, binding to maltase, read-out: Ki maltase (competitive inhibition constant)): 1.99 ± 0.02 µM | Ki’ maltase (uncompetitive inhibition constant) (maltase [3]; Dixon plot): 3.73 ± 0.08 µM | mode of inhibition toward maltase (maltase [3]; maltose substrate): mixed-type inhibition; also recorded: mixed-competitive inhibitors | Ki (sucrase [4]): 6.05 ± 0.04 µM | mode of inhibition toward sucrase (sucrase [4]): mixed-type inhibition; also recorded: mixed-competitive inhibitors

COc1cc(/C=C/C(=O)O)ccc1O [ferulic acid]
mode of inhibition of maltase (maltase [5]): mixed-inhibition manner | mode of inhibition of sucrase (sucrase [6]): mixed-type manner

Oc1cc(COCc2cc(O)c(O)c(Br)c2Br)c(Br)c(Br)c1O [bis (2,3-dibromo-4,5-dihydroxybenzyl)ether]
IC50 (sucrose in rats): 1000 ± 30 µM

COc1ccc(/C=C/C(=O)O)cc1O [isoferulic acid]
mode of inhibition of maltase (maltase [5]): mixed-inhibition manner | mode of inhibition of sucrase (sucrase [6]): mixed-type manner

C[C@H](CC[C@@H](O[C@@H]1O[C@H](CO)[C@@H](O)[C@H](O)[C@H]1O[C@@H]1O[C@H](CO)[C@@H](O)[C@H](O)[C@H]1O)C(C)(C)O)[C@H]1CC[C@@]2(C)[C@H]3CC=C4[C@@H](CC[C@H](O[C@@H]5O[C@H](CO[C@@H]6O[C@H](CO)[C@@H](O)[C@H](O)[C@H]6O)[C@@H](O)[C@H](O)[C@H]5O)C4(C)C)[C@]3(C)[C@H](O)C[C@]12C [mogroside IV]
IC50 (maltase [7]): 12000 µM

O=C(O[C@@H]1Cc2c(O)cc(O)cc2O[C@@H]1c1ccc(O)c(O)c1)c1cc(O)c(O)c(O)c1 [ECG, epicatechin gallate]
IC50 (sucrase [1]): 18.3 ± 3.99 µM | sucrase inhibition (sucrase [1]): 56.1% | mode of inhibition of α-glucosidase (α-glucosidase): mixed-competitive inhibitors | Ki (α-glucosidase): 0.21 ± 0.04 µM | Ki’ α-glucosidase (α-glucosidase): 2.34 ± 0.06 µM | IC50 (maltase [2]): 3.64 ± 2.99 µM | inhibition at 10 µM (maltase [2]): 87.7% | Ki (maltase [3]): 3.14 ± 0.04 µM | Ki’ maltase (uncompetitive inhibition constant) (maltase [3]; Dixon plot): 6.38 ± 0.04 µM | mode of inhibition toward maltase (maltase [3]; maltose substrate): mixed-type inhibition; also recorded: mixed-competitive inhibitors | Ki (sucrase [4]): 8.58 ± 0.08 µM | Ki’ sucrase (uncompetitive inhibition constant) (sucrase [4]): 15.74 ± 0.32 µM | mode of inhibition toward sucrase (sucrase [4]): mixed-type inhibition; also recorded: mixed-competitive inhibitors

N[C@H]1C=C(CO)[C@@H](O)[C@H](O)[C@H]1O [valienamine]
mode of inhibition of sucrase (sucrase [8]; Lineweaver–Burk plot): competitive inhibitor | Ki (sucrase [8]; read-out: Ki sucrase calculated from a Dixon plot): 0.77 µM

O=c1c(O)c(-c2ccc(O)c(O)c2)oc2cc(O)cc(O)c12 [quercetin, reference compound]
IC50 (sucrase [1]): 19 ± 2.53 µM | sucrase inhibition (sucrase [1]): 51.7% | IC50 (rat sucrose): 3500 ± 300 µM | mode of inhibition of α-glucosidase (α-glucosidase): mixed-competitive inhibitors | inhibition at 10 µM (maltase [2]): 56.3% | Ki’ maltase (uncompetitive inhibition constant) (maltase [3]; Dixon plot): 14.97 ± 0.75 µM | mode of inhibition toward maltase (maltase [3]; maltose substrate): mixed-type inhibition; also recorded: mixed-competitive inhibitors | IC50 (rat maltase [9]): 4800 ± 400 µM | Ki (sucrase [4]): 14.05 ± 0.03 µM | mode of inhibition toward sucrase (sucrase [4]): mixed-type inhibition; also recorded: mixed-competitive inhibitors

C[C@H](CC[C@@H](O[C@@H]1O[C@H](CO[C@@H]2O[C@H](CO)[C@@H](O)[C@H](O)[C@H]2O)[C@@H](O)[C@H](O)[C@H]1O[C@@H]1O[C@H](CO)[C@@H](O)[C@H](O)[C@H]1O)C(C)(C)O)[C@H]1CC[C@@]2(C)[C@@H]3CC=C4[C@@H](CC[C@H](O[C@@H]5O[C@H](CO)[C@@H](O)[C@H](O)[C@H]5O)C4(C)C)[C@]3(C)[C@H](O)C[C@]12C [siamenoside I]
IC50 (maltase [7]): 10000 µM

C[C@H](CC[C@@H](O[C@@H]1O[C@H](CO[C@@H]2O[C@H](CO)[C@@H](O)[C@H](O)[C@H]2O)[C@@H](O)[C@H](O)[C@H]1O)C(C)(C)O)[C@H]1CC[C@@]2(C)[C@@H]3CC=C4[C@@H](CC[C@H](O[C@@H]5O[C@H](CO)[C@@H](O)[C@H](O)[C@H]5O)C4(C)C)[C@]3(C)[C@H](O)C[C@]12C [mogroside III]
IC50 (maltase [7]): 1600 µM

O=C(O)/C=C/c1ccc(O)c(O)c1 [caffeic acid]
mode of inhibition of maltase (maltase [5]): mixed-inhibition manner

O=C(O[C@@H]1Cc2c(O)cc(O)cc2O[C@@H]1c1cc(O)c(O)c(O)c1)c1cc(O)c(O)c(O)c1 [epigallocatechin gallate]
IC50 (rat sucrase): 950 ± 86 µM | mode of inhibition of maltase (maltase [10]; Lineweaver–Burk plot): competitive inhibitor | Ki (maltase [10]; read-out: Ki maltase calculated from a Dixon plot): 5.93 ± 0.26 µM | IC50 (rat maltase [11]): 14 ± 2 µM

Oc1cc(O)c2c(c1)O[C@H](c1ccc(O)c(O)c1)[C@H](O)C2 [EC, epicatechin]
IC50 (sucrase [1]): 18.9 ± 3.66 µM | sucrase inhibition (sucrase [1]): 51.4% | IC50 (maltase [2]; [12]): 6.25 ± 1.84 µM | inhibition at 10 µM (maltase [2]): 66.3% | Ki’ maltase (uncompetitive inhibition constant) (maltase [3]; Dixon plot): 18.88 ± 0.22 µM | mode of inhibition toward maltase (maltase [3]; maltose substrate): mixed-type inhibition; also recorded: mixed-competitive inhibitors | Ki (maltase [3]; read-out: Ki maltase (competitive inhibition constant)): 7.02 ± 0.26 µM | Ki (sucrase [4]): 13.7 ± 0.15 µM | Ki’ sucrase (uncompetitive inhibition constant) (sucrase [4]): 21.36 ± 0.30 µM | mode of inhibition toward sucrase (sucrase [4]): mixed-type inhibition; also recorded: mixed-competitive inhibitors
